{
  "source": "patent EP1285919A1",
  "about": "“C10 Carbonate substituted taxanes as antitumor agents” (Florida State University Research Foundation, Inc., priority 2001, dated 2003)",
  "key": {"HCT116": {"test_system": "HCT116", "experiment": "In vitro cytotoxicity, cell colony formation assay", "format": "cell-based", "settings": "read-out: IN VITRO ID 50", "experimental": "In Vitro cytotoxicity measured by the cell colony formation assay\nFour hundred cells (HCT116) were plated in 60 mm Petri dishes containing 2.7 mL of medium (modified McCoy's 5a medium containing 10% fetal bovine serum and 100 units/mL penicillin and […] streptomycin). The cells were incubated in a CO2 incubator at 37 °C for 5 h for attachment to the bottom of Petri dishes. The compounds identified in Example 2 were made up fresh in medium at ten times the final concentration, and then 0.3 mL of this stock solution was added to the 2.7 mL of medium in the dish. The cells were then incubated with drugs for 72 h at 37 ° C. At the end of incubation the drug-containing media were decanted, the dishes were rinsed with 4 mL of Hank's Balance Salt Solution (HBSS), 5 mL of fresh medium was added, and the dishes were returned to the incubator for colony formation. The cell colonies were counted using a colony counter after incubation for 7 days."}, "[1]": {"test_system": "Panc-1 Human Pancreatic Carcinoma", "experiment": "In vivo evaluation against Panc-1 pancreatic carcinoma xenografts", "settings": "for MDS (n): 1.5 g endpoint", "experimental": "In Vivo Evaluation of Antitumor Compounds Against Panc-1 Human Pancreatic Carcinoma\nAntitumor compounds were prepared in a vehicle of 5% ethanol, 5% Cremophor and 90% isotonic saline in the manner as described for Solution 1 of Example 10. Taxol (paclitaxel; Bristol Meyers Squibb) was obtained as the marketed pharmaceutical drug. The dosing volume was 0.3 ml per 20 g mouse.\nFemale NCr-nude mice were implanted subcutaneously with 1 mm^3 Panc-1 pancreatic carcinoma fragments in the flank and sorted into treatment groups of six mice each. […] Dosing was initiated on Day 1. The antitumor compounds were given i.v. at an estimated maximum tolerated dose (MTD) appropriate for each agent on a qd x 1 schedule (single administration of compound). The i.v. taxol was given on the qd x 1 schedule as two split doses (one hour between) of 12 mg/kg per split dose (total dose = 24 mg/kg). Taxol was also administered at a dose of 15 mg/kg i.p. on a qd x 5 schedule. The vehicle was administered i.v. to control mice in Group 1 on the qd x 1 schedule. The study was terminated on Day 63. Treatment groups are detailed in Table 9.\nThe results are summarized in Table 10 and include mean days of survival (MDS), number of toxic deaths, number of survivors, number of complete or partial responses, and number with stable disease. The mean days of survival is the number of days after which a neoplasm reached a size of 1.5 g and the animal was euthanized. A complete response is obtained […]. […]"}, "[2]": {"test_system": "NCI-H1299 (H1299) carcinoma", "experimental": "In Vivo Evaluation of Antitumor Compounds Against Human Lung Carcinoma Xenografts\nThe compounds were prepared in the manner as described for Solution 2 of Example 10. Taxol (paclitaxel, Bristol Meyers Squibb), used as a control, was obtained as the marketed pharmaceutical drug.\nTaxol itself was given as a split i.v. dose of 36 mg/kg, with the two 18 mg/kg doses separated by one hour. Vehicle control animals were dosed twice intravenously with half the total volume being given separated by one hour. The study was terminated on Day 60.\n(§1) The results are summarized in Table 1 and include mean days of survival (MDS), number of toxic deaths, number of survivors, number of complete or partial responses, and number with stable disease. The mean days of survival is the number of days after which a SKMES neoplasm reached a size of 1.5 g and the animal was euthanized. A complete response is obtained if the tumor is not palpable at the end of the study. A partial response is obtained if the tumor shrinks to a size smaller than its size on Day 1 of the study.\nA tumor scoring system was designed to provide a more quantitative ranking of efficacy (therapeutic potential) among the antitumor agents evaluated against the different human solid tumor xenografts. Each mouse in a study was given a score of from 1 to 10 at the end of the study. The scores can be summarized as follows:\nThe individual score for each mouse was averaged into a mean score for each treatment group. […]\nThe treatment protocol for the H1299 test was identical to the SK-MES test protocol. […]"}, "[3]": {"test_system": "SKMES Human Lung Carcinoma Xenograft", "settings": "Group 3: 40 mg/kg single oral bolus Day 1, 6 mice, study to Day 60", "experimental": "The compound was administered as a single bolus by the oral route in a study to investigate the efficacy of this compound against the SKMES human lung cancer xenograft.\nFemale Nu/Nu mice (6-8 weeks of age; implanted with 1 mm^3 SKMES lung carcinoma fragments in the flank) were sorted into four treatment groups of six mice each. SKMES size ranges and group mean SKMES size ranges were 126-448 mg and 238-241 mg, respectively. […] Treatments were administered as a single oral bolus on Day 1, and the study was terminated on Day 60.\nas §1, with “Table 13” for “Table 1”, “of 2.0” for “of 1.5”\nThe total response rate was 100% with four complete responses and two partial responses. The total response rate is defined as the percentage of evaluable animals (excluding deaths due to procedure or toxicity) in a group that experience complete or partial responses at the termination of the study."}, "[4]": {"settings": "Group 4: 60 mg/kg i.v. qd x 1, 6 mice, study to Day 63"}, "[5]": {"settings": "Group 2: 24 mg/kg i.v. qd x 1 (two split doses of 12 mg/kg), 6 mice, study to Day 63"}, "[6]": {"settings": "Group 3: 15 mg/kg i.p. qd x 5, 6 mice, study to Day 63"}},
  "note": "Where two headings read alike, the source gives them in different places.",
  "data": [
    {"smiles": "CCOC(=O)O[C@H]1C(=O)[C@@]2(C)[C@H]([C@H](OC(=O)c3ccccc3)[C@]3(O)C[C@H](OC(=O)[C@H](O)[C@H](C=C(C)C)NC(=O)OC(C)(C)C)C(C)=C1C3(C)C)[C@]1(OC(C)=O)CO[C@@H]1C[C@@H]2O", "note": "[Compound 1781]", "values": [
      {"measurement": "IC50", "setting": "HCT116; HCT116, 72 h with drug, colonies counted after 7 days, concentration producing 50% inhibition of colony formation", "result": "< 1", "unit": "nM"},
      {"measurement": "overall response rate", "setting": "[1]; 1781 i.v. qd x 1 at estimated MTD", "result": 66.7, "unit": "%"},
      {"measurement": "MDS (n)", "setting": "[1]; Group 4: 60 mg/kg i.v. qd x 1, 6 mice, n=2, study to Day 63", "result": "59.3 ± 2.9(2) days"},
      {"measurement": "Complete Response", "setting": "[1]; [4]", "result": 0},
      {"measurement": "Mean Score", "setting": "[1]; [4]", "result": "6.7 ± 1.2"},
      {"measurement": "Partial Response", "setting": "[1]; [4]", "result": 4},
      {"measurement": "Stable Disease", "setting": "[1]; [4]", "result": 0},
      {"measurement": "Survivors", "setting": "[1]; [4]", "result": 4},
      {"measurement": "Toxic Deaths", "setting": "[1]; [4]", "result": 0},
      {"measurement": "Toxic Deaths", "setting": "[1]; i.v. qd x 1, Taxol 24 mg/kg, 1781 at estimated MTD, six mice per group", "result": "no toxic deaths"},
      {"measurement": "mean group weight loss", "setting": "[1]; mouse, in vivo, iv", "result": "minimal"},
      {"measurement": "tolerability", "setting": "[1]; mouse, in vivo, iv", "result": "well-tolerated"}
    ]},
    {"smiles": "CC(=O)O[C@H]1C(=O)[C@@]2(C)[C@H]([C@H](OC(=O)c3ccccc3)[C@]3(O)C[C@H](OC(=O)[C@H](O)[C@@H](NC(=O)c4ccccc4)c4ccccc4)C(C)=C1C3(C)C)[C@]1(OC(C)=O)CO[C@@H]1C[C@@H]2O", "note": "[Taxol]", "values": [
      {"measurement": "survival extension compared to vehicle-treated animals", "setting": "[2]; Taxol 36 mg/kg i.v., five animals", "result": 10, "unit": "%"},
      {"measurement": "MDS (n)", "setting": "[2]; mean days of survival, i.v. split dose qd x 1, Taxol 36 mg/kg, 1755 49 mg/kg, six mice per group", "result": "27.0 ± 4.6 (5) days"},
      {"measurement": "Complete Response", "setting": "[2]; number of mice of six", "result": 0},
      {"measurement": "Stable Disease", "setting": "[2]; number of mice of six", "result": 0},
      {"measurement": "Survivors", "setting": "[2]; number of mice of six", "result": 1},
      {"measurement": "Toxic Deaths", "setting": "[2]; number of mice of six, i.v. split dose qd x 1, Taxol 36 mg/kg, 1755 49 mg/kg", "result": 0},
      {"measurement": "Mean Score", "setting": "[2]; tumor score 1 to 10 per mouse, averaged per group", "result": "2.7 ± 1.3"},
      {"measurement": "MDS (n)", "setting": "[3]; n=6, 2.0 g endpoint", "result": "13.2 ± 1.4(6) days"},
      {"measurement": "% Total Response", "setting": "[3]", "result": 0, "unit": "%"},
      {"measurement": "Complete Response", "setting": "[3]", "result": 0},
      {"measurement": "Partial Response", "setting": "[3]", "result": 0},
      {"measurement": "Stable Disease", "setting": "[3]", "result": 0},
      {"measurement": "Survivors", "setting": "[3]", "result": 0},
      {"measurement": "Toxic Deaths", "setting": "[3]", "result": 0},
      {"measurement": "IC50", "setting": "HCT116; Homo sapiens, HCT-116", "result": 2.1, "unit": "nM"},
      {"measurement": "MDS (n)", "setting": "[1]; Group 2: 24 mg/kg i.v. qd x 1 (two split doses of 12 mg/kg), 6 mice, n=4, study to Day 63", "result": "34.7 ± 3.4(4) days"},
      {"measurement": "Complete Response", "setting": "[1]; [5]", "result": 0},
      {"measurement": "Mean Score", "setting": "[1]; [5]", "result": "2.2 ± 0.8"},
      {"measurement": "Partial Response", "setting": "[1]; [5]", "result": 0},
      {"measurement": "Stable Disease", "setting": "[1]; [5]", "result": 1},
      {"measurement": "Survivors", "setting": "[1]; [5]", "result": 1},
      {"measurement": "Complete Response", "setting": "[1]; [6]", "result": 0},
      {"measurement": "Mean Score", "setting": "[1]; [6]", "result": "1.2 ± 1.2"},
      {"measurement": "Partial Response", "setting": "[1]; [6]", "result": 1},
      {"measurement": "Stable Disease", "setting": "[1]; [6]", "result": 0},
      {"measurement": "Survivors", "setting": "[1]; [6]", "result": 1},
      {"measurement": "MDS", "setting": "[1]; Taxol 24 mg/kg i.v. qd x 1, four mice, 1.5 g cut-off", "result": 34.7, "unit": "days"},
      {"measurement": "Toxic Deaths", "setting": "[1]; female, NCr-nude, mouse, in vivo", "result": 1},
      {"measurement": "Toxic Deaths", "setting": "[1]; female, NCr-nude, mouse, in vivo, ip, 15 mg/kg", "result": 4},
      {"measurement": "Stable Disease", "setting": "[1]; number of cases, Taxol 24 mg/kg i.v. qd x 1, six mice", "result": "one"}
    ]}
  ]
}
